US9725454B2, “Crystalline forms of ponatinib hydrochloride” (SANDOZ AG, priority 2013, dated 2017)
Structures can show the parent of a compound that is named as a salt.

Assays:
[1] = Storage stability, chemical purity by HPLC; assay type: physicochemical; settings: conclusion from the stability studies
Experimental: (§1) To determine concentration, solutions were diluted in methanol; to determine purity, 2.7 mg material was dissolved in 1 mL methanol. The conditions listed below were then used. • Instrument: Agilent 1100 • Column: Waters Symmetry C18 5μ 150×3.9 mm column • Column Temperature: 25° C. • Autosampler Temperature: Not controlled • UV wavelength: 254 nm • Injection Volume: 3 μL • Flow Rate: 1.2 mL/min • Mobile Phase A: 0.01% formic acid in water • Mobile Phase B: 0.01% formic acid in ACN • Gradient program: […]
In order to assess physical and chemical stability, Ponatinib HCl crystal form 1 obtained by direct crystallization according to example 4, and the crystalline ponatinib HCl Form 1 which was obtained via Form 8 according to example 7, were stored at 25° C./60%RH and 40° C./75% RH. After 1 week, the three samples were analysed by XRPD and HPLC (chemical purity).

[2] = Aqueous solubility by HPLC analysis; assay type: physicochemical; settings: water, thermodynamic from solid
Experimental: as §1
A filtered solution of ponatinib HCl in acetonitrile/water (1:1) was allowed to slowly evaporate at ambient temperature. A hydrated crystal form 8 showing characteristic peaks at 6.21 and 10.5 2Theta was found. Approximately 11.4% water content was found by KF analysis. […] (peak at 90° C.).
A filtered solution of ponatinib HCl in acetone/water (1:1) was allowed to slowly evaporate. A hydrated crystal form 8 showing characteristic peaks at 6.21 and 10.5 2Theta was found. Approximately 11.4% water content was found by KF analysis. […] (peak at 90° C.).
Ponatinib HCl form 1 was slurried in water for 24 h at 22° C. A hydrated crystal form 8 showing characteristic peaks at 6.21 and 10.5 2Theta was found. Approximately 11.4% water content was found by KF analysis. […] (peak at 90° C.).

SMILES	chemical stability compared with form 1 obtained by direct crystallization [1]	solubility [2] [µg/mL]
Cc1ccc(C(=O)Nc2ccc(CN3CCN(C)CC3)c(C(F)(F)F)c2)cc1C#Cc1cnc2cccnn12 [Form 1 via form 8, ponatinib hydrochloride]	higher chemical stability	
Cc1ccc(C(=O)Nc2ccc(CN3CCN(C)CC3)c(C(F)(F)F)c2)cc1C#Cc1cnc2cccnn12 [Form 8, ponatinib hydrochloride]		620
